Counter-ions that a name gives are not always drawn.
target: CRAC channels (Homo sapiens (Human), UniProt Q96D31); experiment: In-vitro CRAC channel inhibition assay in Jurkat cells (thapsigargin-induced calcium influx); assay type: cell-based
Procedure: 1A. In-Vitro CRAC Channel Inhibition Assay in Jurkat Cells
Plate is incubated at 37° C./5% CO2 for 30 min followed by further 15 min incubation at room temperature. Test compounds (DMSO stocks diluted in Ca^2+ and Mg^2+ free Hanks buffer) at desired concentrations were added to the wells and incubated for 15 min. Thapsigargin (1 μM final concentration) was added to the wells and incubated for 15 min to inhibit the Sarco-endoplasmic reticulum Ca^2+ ATPase pump thereby depleting endoplasmic calcium and raising cytosolic calcium concentrations. Store-operated calcium entry was initiated by adding extracellular Ca^2+ to a final concentration of 1.8 mM. Fluorescence was monitored over 5 min on a plate reader (BMG Labtech., Germany) with excitation at 485 nm and; an emission wavelength at 520 nm. Data were analyzed using GraphPad Prism. IC50 for each compound was determined based on the percent inhibition of thapsigargin-induced calcium influx into cells.

Chain of CRAC channels (Q96D31 whole entry): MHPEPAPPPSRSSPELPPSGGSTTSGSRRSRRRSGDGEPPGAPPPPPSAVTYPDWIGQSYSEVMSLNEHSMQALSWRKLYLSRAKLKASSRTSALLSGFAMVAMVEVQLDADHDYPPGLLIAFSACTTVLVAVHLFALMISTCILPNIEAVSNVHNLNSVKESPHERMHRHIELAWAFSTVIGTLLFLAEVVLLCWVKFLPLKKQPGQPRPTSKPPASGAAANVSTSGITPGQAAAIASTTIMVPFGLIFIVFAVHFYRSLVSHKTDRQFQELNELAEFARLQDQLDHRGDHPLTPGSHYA

Compound	inhibition at 1 µM [%]
Cc1ncsc1C(=O)Nc1ccc(-n2nc(C(F)(F)F)cc2C(F)F)cc1 [Example 126, N-{4-[5-(difluoromethyl)-3-(trifluoromethyl)-1H-pyrazol-1-yl]phenyl}-4-methyl thiazole-5-carboxamide]	100
O=S(=O)(Nc1ccc(-n2nc(C3CC3)cc2C2CC2)cc1)c1ccccc1 [Example 27, N-[4-(3,5-dicyclopropyl-1H-pyrazol-1-yl)phenyl]benzenesulfonamide]	91.2
Cc1nnsc1C(=O)Nc1ccc(-n2nc(C3CC3)c(Cl)c2C2CC2)c(F)c1 [Example 37, N-[4-(4-chloro-3,5-dicyclopropyl-1H-pyrazol-1-yl)-3-fluorophenyl]-4-methyl-1,2,3-thiadiazole-5-carboxamide]	82.2
Cc1noc(C)c1C(=O)Nc1ccc(-n2nc(C3CC3)cc2C2CC2)cc1 [Example 5, N-[4-(3,5-dicyclopropyl-1H-pyrazol-1-yl)phenyl]-3,5-dimethylisoxazole-4-carboxamide]	48.5
Cc1oncc1C(=O)Nc1ccc(-n2nc(C3CC3)cc2C2CC2)cc1 [Example 4, N-[4-(3,5-dicyclopropyl-1H-pyrazol-1-yl)phenyl]-5-methylisoxazole-4-carboxamide]	100
O=C(Cc1ccccn1)Nc1ccc(-n2nc(C(F)(F)F)c(Cl)c2C2CC2)c(F)c1 [Example 96, N-{4-[4-chloro-5-cyclopropyl-3-(trifluoromethyl)-1H-pyrazol-1-yl]-3-fluorophenyl}-2-(pyridin-2-yl)acetamide hydrochloride]	18
CSc1ccc(Cl)c(C(=O)Nc2ccc(-n3nc(C4CC4)cc3C3CC3)cc2)c1 [Example 12, 2-chloro-N-[4-(3,5-dicyclopropyl-1H-pyrazol-1-yl)phenyl]-5-(methylthio)benzamide]	90.8
O=C(Nc1ccc(-n2nc(C3CC3)cc2C2CC2)cc1)c1ccncc1 [Example 15, N-[4-(3,5-dicyclopropyl-1H-pyrazol-1-yl)phenyl]isonicotinamide hydrochloride]	94
Cc1ncsc1C(=O)Nc1ccc(-n2nc(C(F)(F)F)cc2CF)cc1 [Example 125, N-{4-[5-(fluoromethyl)-3-(trifluoromethyl)-1H-pyrazol-1-yl]phenyl}-4-methylthiazole-5-carboxamide]	100
Cc1ncncc1C(=O)Nc1ccc(-n2nc(C3CC3)cc2C2CC2)cc1 [Example 18, N-[4-(3,5-dicyclopropyl-1H-pyrazol-1-yl)phenyl]-4-methylpyrimidine-5-carboxamide]	82.8
Cc1ncsc1C(=O)Nc1ccc(-n2nc(C(F)(F)F)c(Cl)c2C2CC2)nc1 [Example 123, N-{6-[4-chloro-5-cyclopropyl-3-trifluoromethyl-1H-pyrazol-1-yl]pyridin-3-yl}-4-methylthiazole-5-carboxamide]	31
O=C(Nc1ccc(-n2nc(C3CC3)cc2C2CC2)nc1)c1c(Cl)cncc1Cl [Example 50, 3,5-dichloro-N-[6-(3,5-dicyclopropyl-1H-pyrazol-1-yl)pyridin-3-yl]isonicotinamide hydrochloride]	29.8
Cc1ncncc1C(=O)Nc1ccc(-n2nc(C3CC3)cc2C2CC2)nc1 [Example 51, N-[6-(3,5-dicyclopropyl-1H-pyrazol-1-yl)pyridin-3-yl]-4-methylpyrimidine-5-carboxamide hydrochloride]	0
O=C(Cc1ccc(F)cc1)Nc1ccc(-n2nc(C3CC3)cc2C2CC2)cc1 [Example 20, N-[4-(3,5-dicyclopropyl-1H-pyrazol-1-yl)phenyl]-2-(4-fluorophenyl)acetamide]	70.2
O=C(Nc1ccc(-n2nc(C3CC3)cc2C2CC2)nc1)c1ccncc1F [Example 48, N-[6-(3,5-dicyclopropyl-1H-pyrazol-1-yl)pyridin-3-yl]-3-fluoroisonicotinamide]	12.3
Cc1nc(C)c(C(=O)Nc2ccc(-n3nc(C4CC4)cc3C3CC3)nc2)s1 [Example 40, N-[6-(3,5-dicyclopropyl-1H-pyrazol-1-yl)pyridin-3-yl]-2,4-dimethylthiazole-5-carboxamide]	12.6

Second part, the molecule after the results:

inhibition at 1 µM [%]	Compound
21.5	O=C(Nc1ccc(-n2nc(C3CC3)cc2C2CC2)c(F)c1)c1cccnc1 [Example 34, N-[4-(3,5-dicyclopropyl-1H-pyrazol-1-yl)-3-fluorophenyl]nicotinamide hydrochloride]
0	Cc1ncsc1C(=O)N(C)c1ccc(-n2nc(C(F)(F)F)cc2C2CC2)cc1 [Example 54, N-{4-[5-cyclopropyl-3-(trifluoromethyl)-1H-pyrazol-1-yl]phenyl}-N,4-dimethylthiazole-5-carboxamide]
20.9	O=C(Cc1ccncc1)Nc1ccc(-n2nc(C(F)(F)F)cc2C2CC2)nc1 [Example 118, N-{6-[5-cyclopropyl-3-(trifluoromethyl)-1H-pyrazol-1-yl]pyridin-3-yl}-2-(pyridin-4-yl)acetamide hydrochloride]
100	O=C(Nc1ccc(-n2nc(C(F)(F)F)cc2C2CC2)cc1)c1cccc(F)c1F [Example 61, N-{4-[5-cyclopropyl-3-(trifluoromethyl)-1H-pyrazol-1-yl]phenyl}-2,3-difluorobenzamide]
92.8	O=C(Nc1ccc(-n2nc(C3CC3)cc2C2CC2)cc1)c1ccncc1F [Example 16, N-[4-(3,5-dicyclopropyl-1H-pyrazole-1-yl)phenyl]-3-fluoroisonicotinamide]
5.31	Cc1ncncc1C(=O)Nc1cc(F)c(-n2nc(C(F)(F)F)cc2C2CC2)c(F)c1 [Example 130, N-{4-[5-cyclopropyl-3-(trifluoromethyl)-1H-pyrazol-1-yl]-3,5-difluorophenyl}-4-methylpyrimidine-5-carboxamide]
88.7	O=C(Nc1ccc(-n2nc(C(F)(F)F)cc2C2CC2)nc1)c1ccncc1F [Example 114, N-{6-[5-cyclopropyl-3-(trifluoromethyl)-1H-pyrazol-1-yl]pyridin-3-yl}-3-fluoroisonicotinamide]
85.6	O=C(Nc1c(Cl)cccc1Cl)c1ccc(-n2nc(C(F)(F)F)cc2C2CC2)c(F)c1 [Example 98]
35.1	Cc1noc(C)c1C(=O)Nc1ccc(-n2nc(C3CC3)cc2C2CC2)c(F)c1 [Example 30, N-[4-(3,5-dicyclopropyl-1H-pyrazol-1-yl)-3-fluorophenyl]-3,5-dimethylisoxazole-4-carboxamide]
100	CSc1ccc(Cl)c(C(=O)Nc2ccc(-n3nc(C(F)(F)F)cc3C3CC3)cc2)c1 [Example 64, 2-chloro-N-{4-[5-cyclopropyl-3-(trifluoromethyl)-1H-pyrazol-1-yl]phenyl}-5-(methylthio)benzamide]
97.9	CS(=O)(=O)c1ccc(Cl)c(C(=O)Nc2ccc(-n3nc(C(F)(F)F)cc3C3CC3)cc2)c1 [Example 65, 2-chloro-N-{4-[5-cyclopropyl-3-(trifluoromethyl)-1H-pyrazol-1-yl]phenyl}-5-(methylsulfonyl)benzamide]
100	O=C(Nc1c(F)cccc1Cl)c1ccc(-n2nc(C(F)(F)F)cc2C2CC2)c(F)c1 [Example 128, N-(2-chloro-6-fluorophenyl)-4-[5-cyclopropyl-3-(trifluoromethyl)-1H-pyrazol-1-yl]-3-fluorobenzamide]
68.9	O=C(Cc1ccc(F)cc1)Nc1ccc(-n2nc(C(F)(F)F)cc2C2CC2)cc1 [Example 70, N-{4-[5-cyclopropyl-3-(trifluoromethyl)-1H-pyrazol-1-yl]phenyl}-2-(4-fluorophenyl)acetamide]
15.4	Cc1ncncc1C(=O)Nc1ccc(-n2nc(C(F)(F)F)cc2C2CC2)nc1 [Example 116, N-{6-[5-cyclopropyl-3-(trifluoromethyl)-1H-pyrazol-1-yl]pyridin-3-yl}-4-methylpyrimidine-5-carboxamide]
100	O=C(Cc1ccccn1)Nc1ccc(-n2nc(C(F)(F)F)cc2C2CC2)cc1 [Example 71, N-{4-[5-cyclopropyl-3-(trifluoromethyl)-1H-pyrazol-1-yl]phenyl}-2-(pyridin-2-yl)acetamide hydrochloride]
100	O=C(Cc1cccnc1)Nc1ccc(-n2nc(C(F)(F)F)cc2C2CC2)cc1 [Example 72, N-{4-[5-cyclopropyl-3-(trifluoromethyl)-1H-pyrazol-1-yl]phenyl}-2-(pyridin-3-yl)acetamide hydrochloride]
91.6	O=C(Nc1ccc(-n2nc(C(F)(F)F)cc2C2CC2)c(F)c1)c1cccc(F)c1F [Example 87, N-{4-[5-cyclopropyl-3-(trifluoromethyl)-1H-pyrazol-1-yl]-3-fluorophenyl}-2,3-difluorobenzamide]
100	O=C(Nc1ccc(-n2nc(C(F)(F)F)cc2C2CC2)cc1)c1ccncc1F [Example 67, N-{4-[5-cyclopropyl-3-(trifluoromethyl)-1H-pyrazol-1-yl]phenyl}-3-fluoroisonicotinamide]
9.34	O=C(Nc1ccc(-n2nc(C3CC3)cc2C2CC2)nc1)c1ccccc1F [Example 43, N-[6-(3,5-dicyclopropyl-1H-pyrazol-1-yl)pyridin-3-yl]-2-fluorobenzamide]
100	O=C(Nc1ccc(-n2nc(C(F)(F)F)cc2C2CC2)cc1)c1ccncc1 [Example 66, N-{4-[5-cyclopropyl-3-(trifluoromethyl)-1H-pyrazol-1-yl]phenyl}pyridine-4-carboxamide hydrochloride]
100	O=C(Nc1c(F)cccc1F)c1ccc(-n2nc(C(F)(F)F)cc2C2CC2)cc1 [Example 79, 4-[5-cyclopropyl-3-(trifluororomethyl)-1H-pyrazol-1-yl]-N-(2,6-difluorophenyl) benzamide]

Reference: patent publication US10668051B2, “Modulators of calcium release-activated calcium channel” (Rhizen Pharmaceuticals SA, priority 2009, dated 2020)
